Tests used:
Abutilon theophrasti [1] = experiment: Pre-emergence herbicidal effect; assay type: in vivo; conditions: Dosage 320 g/ha, scored visually after 3 weeks
Procedure, shortened: (§1)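 Seeds in sandy loam were covered with soil and treated pre-emergence with WP or EC formulations applied as aqueous spray with 0.2% wetting agent. Percent damage was scored visually after 3 weeks relative to untreated controls.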

Alopecurus myosuroides = experiment: Pre-emergence herbicidal effect; assay type: in vivo; conditions: Dosage 320 g/ha, scored visually after 3 weeks
Procedure, shortened: as §1

Amaranthus retroflexus [2] = experiment: Pre-emergence herbicidal effect; assay type: in vivo; conditions: scored visually after 3 weeks
Procedure, shortened: as §1

Echinochloa crus-galli [3] = experiment: Pre-emergence herbicidal effect; assay type: in vivo; conditions: scored visually after 3 weeks
Procedure, shortened: as §1

Matricaria inodora [4] = experiment: Pre-emergence herbicidal effect; assay type: in vivo; conditions: scored visually after 3 weeks
Procedure, shortened: as §1

Polygonum convolvulus [5] = experiment: Pre-emergence herbicidal effect; assay type: in vivo; conditions: scored visually after 3 weeks
Procedure, shortened: as §1

Setaria viridis [6] = experiment: Pre-emergence herbicidal effect; assay type: in vivo; conditions: scored visually after 3 weeks
Procedure, shortened: as §1

Stellaria media [7] = experiment: Pre-emergence herbicidal effect; assay type: in vivo; conditions: scored visually after 3 weeks
Procedure, shortened: as §1

Veronica persica [8] = experiment: Pre-emergence herbicidal effect; assay type: in vivo; conditions: scored visually after 3 weeks
Procedure, shortened: as §1

Viola tricolor [9] = experiment: Pre-emergence herbicidal effect; assay type: in vivo; conditions: scored visually after 3 weeks
Procedure, shortened: as §1

Abutilon theophrasti [10] = experiment: Post-emergence herbicidal effect; assay type: in vivo; conditions: assessed visually after about 3 weeks vs untreated controls
Procedure, shortened: (§2)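 Ratings are visual percentages taken around 3 weeks after treatment, compared with untreated plants. Treatment consisted of an aqueous spray of WP or EC formulations, with 0.2% wetting agent, onto one-leaf-stage weeds raised from seed in sandy loam.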

Amaranthus retroflexus [11] = experiment: Post-emergence herbicidal effect; assay type: in vivo; conditions: assessed visually after about 3 weeks vs untreated controls
Procedure, shortened: as §2

Echinochloa crus-galli [12] = experiment: Post-emergence herbicidal effect; assay type: in vivo; conditions: 320 g/ha, assessed visually after about 3 weeks vs untreated controls
Procedure, shortened: as §2

Ipomoea purpurea = experiment: Post-emergence herbicidal effect; assay type: in vivo; conditions: assessed visually after about 3 weeks vs untreated controls
Procedure, shortened: as §2

Matricaria inodora [13] = experiment: Post-emergence herbicidal effect; assay type: in vivo; conditions: assessed visually after about 3 weeks vs untreated controls
Procedure, shortened: as §2

Setaria viridis [14] = experiment: Post-emergence herbicidal effect; assay type: in vivo; conditions: 320 g/ha, assessed visually after about 3 weeks vs untreated controls
Procedure, shortened: as §2

Stellaria media [15] = experiment: Post-emergence herbicidal effect; assay type: in vivo; conditions: assessed visually after about 3 weeks vs untreated controls
Procedure, shortened: as §2

Veronica persica [16] = experiment: Post-emergence herbicidal effect; assay type: in vivo; conditions: 320 g/ha, assessed visually after about 3 weeks vs untreated controls
Procedure, shortened: as §2

Viola tricolor [17] = experiment: Post-emergence herbicidal effect; assay type: in vivo; conditions: assessed visually after about 3 weeks vs untreated controls
Procedure, shortened: as §2

logP (HCOOH) = assay type: physicochemical
Excerpt: Table 2 (physicochemical characterization of selected synthesis examples)

Lolium multiflorum = experiment: Pre-emergence herbicidal effect; assay type: in vivo; conditions: Dosage 320 g/ha, scored visually after 3 weeks
Procedure, shortened: as §1

Polygonum convolvulus [18] = experiment: Post-emergence herbicidal effect; assay type: in vivo; conditions: 320 g/ha, assessed visually after about 3 weeks vs untreated controls
Procedure, shortened: as §2

Structure (SMILES) | ABUTH pre-emergence efficacy (herbicidal activity) (Abutilon theophrasti [1]) [%] | AMARE pre-emergence efficacy (herbicidal activity) (Amaranthus retroflexus [2]; Dosage 80 g/ha) [%] | AMARE pre-emergence efficacy (herbicidal activity) (Amaranthus retroflexus [2]; Dosage 320 g/ha) [%] | ECHCG pre-emergence efficacy (herbicidal activity) (Echinochloa crus-galli [3]; Dosage 320 g/ha) [%] | MATIN pre-emergence efficacy (herbicidal activity) (Matricaria inodora [4]; Dosage 80 g/ha) [%] | MATIN pre-emergence efficacy (herbicidal activity) (Matricaria inodora [4]; Dosage 320 g/ha) [%] | POLCO pre-emergence efficacy (herbicidal activity) (Polygonum convolvulus [5]; Dosage 320 g/ha) [%] | SETVI pre-emergence efficacy (herbicidal activity) (Setaria viridis [6]; Dosage 80 g/ha) [%] | SETVI pre-emergence efficacy (herbicidal activity) (Setaria viridis [6]; Dosage 320 g/ha) [%] | STEME pre-emergence efficacy (herbicidal activity) (Stellaria media [7]; Dosage 80 g/ha) [%] | STEME pre-emergence efficacy (herbicidal activity) (Stellaria media [7]; Dosage 320 g/ha) [%] | VERPE pre-emergence efficacy (herbicidal activity) (Veronica persica [8]; Dosage 80 g/ha) [%] | VERPE pre-emergence efficacy (herbicidal activity) (Veronica persica [8]; Dosage 320 g/ha) [%] | VIOTR pre-emergence efficacy (herbicidal activity) (Viola tricolor [9]; Dosage 80 g/ha) [%] | VIOTR pre-emergence efficacy (herbicidal activity) (Viola tricolor [9]; Dosage 320 g/ha) [%] | post-emergence efficacy ABUTH (Abutilon theophrasti [10]; 320 g/ha) [%] | post-emergence efficacy ECHCG (Echinochloa crus-galli [12]) [%] | post-emergence efficacy STEME (Stellaria media [15]; 320 g/ha) [%] | logP (HCOOH) (logP (HCOOH)) | also measured
CC(=NO)c1cnc(NC2CCCc3sc(C)cc32)nc1N (racemic) [compound 341] | 70 | 100 | 100 | 100 | 100 | 100 | 100 | 90 | 100 | 100 | 100 | 100 | 100 | 100 | 100 | 90 | 70 | 60 |  | ALOMY pre-emergence efficacy (herbicidal activity) (Alopecurus myosuroides): 70%; ECHCG pre-emergence efficacy (herbicidal activity) (Echinochloa crus-galli [3]; Dosage 80 g/ha): 60%; POLCO pre-emergence efficacy (herbicidal activity) (Polygonum convolvulus [5]; Dosage 80 g/ha): 70%; post-emergence efficacy ABUTH (Abutilon theophrasti [10]; 80 g/ha): 80%; post-emergence efficacy AMARE (Amaranthus retroflexus [11]; 80 g/ha): 80%; post-emergence efficacy AMARE (Amaranthus retroflexus [11]; 320 g/ha): 90%; post-emergence efficacy PHBPU (Ipomoea purpurea; 80 g/ha): 80%; post-emergence efficacy PHBPU (Ipomoea purpurea; 320 g/ha): 90%; post-emergence efficacy MATIN (Matricaria inodora [13]; 80 g/ha): 60%; post-emergence efficacy MATIN (Matricaria inodora [13]; 320 g/ha): 90%; post-emergence efficacy SETVI (Setaria viridis [14]): 60%; post-emergence efficacy VERPE (Veronica persica [16]): 100%; post-emergence efficacy VIOTR (Viola tricolor [17]; 80 g/ha): 90%; post-emergence efficacy VIOTR (Viola tricolor [17]; 320 g/ha): 90%
CC(=O)c1cnc(N[C@@H]2CCCc3sccc32)nc1C [compound 71] |  |  |  |  |  |  |  |  |  |  |  |  |  |  |  |  |  |  | solid; logP (HCOOH): 2.98; 1H NMR (CDCl3, 400 MHZ, δ in ppm): ): 1.85 (m, 3H, | 
Cc1cc2c(s1)CCC2Nc1ncc(S(C)(=O)=O)c(N)n1 (racemic) [compound 4] | 100 | 100 | 100 | 100 | 100 | 100 | 100 | 100 | 100 | 100 | 100 | 100 | 100 | 100 | 100 | 90 | 100 | 100 |  | LOLMU pre-emergence efficacy (herbicidal activity) (Lolium multiflorum): 100%; post-emergence efficacy ABUTH (Abutilon theophrasti [10]; 80 g/ha): 80%; post-emergence efficacy POLCO (Polygonum convolvulus [18]): 100%
Cc1sc(C)c2c1CCCC2Nc1ncc(C#N)c(N)n1 (racemic) [compound 56] |  |  |  |  |  |  |  |  |  |  |  |  |  |  |  |  |  |  | oily; logP (HCOOH): 2.66; | 
Cc1cc2c(o1)CC(C)(C)CC2Nc1ncc(S(C)(=O)=O)c(N)n1 (racemic) [compound 15] |  |  |  |  |  |  |  |  |  |  |  |  |  |  |  |  |  |  | oily; logP (HCOOH): 2.36; 1H NMR (CDCl3, 400 MHZ, δ in ppm): 1.05 (s, 3H, 3H of | 
CCCS(=O)(=O)c1cnc(NC2CCCc3sccc32)nc1N (centres unmarked) [compound 37, 5-Propylsulfonyl-N2-(4,5,6,7-tetrahydrobenzothiophen-4-yl)pyrimidine-2,4-diamine] |  |  |  |  |  |  |  |  |  |  |  |  |  |  |  |  |  |  |  | chromatographic logP (logP (HCOOH); HCOOH (formic acid)): 2.33
O=C1CCCc2nc(NC3CCCc4occc43)ncc21 (racemic) [compound 54] |  |  |  |  |  |  |  |  |  |  |  |  |  |  |  |  |  |  | oily; logP (HCOOH): 2.35; 1H NMR (CDCl3, 400 MHZ, δ in ppm): 1.80-2.00 (m, 4H, | 
Cc1cc2c(s1)C(Nc1ncc3c(n1)CCCC3=O)CCC2 (racemic) [compound 8] | 100 | 100 | 100 | 100 | 100 | 100 | 100 | 90 | 100 | 80 | 100 | 100 | 100 | 100 | 100 | 80 | 100 | 90 |  | ALOMY pre-emergence efficacy (herbicidal activity) (Alopecurus myosuroides): 80%; ECHCG pre-emergence efficacy (herbicidal activity) (Echinochloa crus-galli [3]; Dosage 80 g/ha): 90%; POLCO pre-emergence efficacy (herbicidal activity) (Polygonum convolvulus [5]; Dosage 80 g/ha): 100%; post-emergence efficacy AMARE (Amaranthus retroflexus [11]; 320 g/ha): 90%; post-emergence efficacy STEME (Stellaria media [15]; 80 g/ha): 80%; post-emergence efficacy VERPE (Veronica persica [16]): 90%; post-emergence efficacy VIOTR (Viola tricolor [17]; 320 g/ha): 90%

From patent US10251395B2, “Substituted furano-/thienocycloalkylamino-2-pyrimidine derivatives and use thereof for controlling undesired plant growth” (Bayer CropScience Aktiengesellschaft, priority 2015, dated 2019)
